# Reference: patent US10575526B2 (priority 2004, dated 2020)
# Columns and labels:
# [1] = system: SAR genes, WIR2 (PR5) and WCI3; experiment: Time-course Northern blot analysis of SAR gene induction in glyphosate tolerant wheat; details: leaf tissues of glyphosate tolerant wheat; INA 200 ppm in 0.1% surfactant blank
# [2] = system: leaf rust spores (Puccinia triticina); experiment: Leaf rust infection of treated glyphosate tolerant wheat in the SAR study; assay type: in vivo; details: glyphosate tolerant wheat inoculated one day after treatment; WeatherMAX 0.75 lb/acre, INA 200 ppm
# [3] = Glyphosate residue analysis in RR rice; assay type: in vivo
# Text: (§1) The selection of application rates that are effective for a specific plant pathogen is within the skill of the ordinary agricultural scientist. […] Useful application rates for the glyphosate compositions employed can depend upon all of the above conditions.
# [4] = Glyphosate residue analysis in RR canola; assay type: in vivo; details: 0.8 lb, seed
# Text: as §1
# [5] = system: rust spores; experiment: Glyphosate as post-infection treatment of glyphosate tolerant wheat; assay type: in vivo; details: evaluated 11 DAI
# Method: Depending on the treatment to be used, the spores are then allowed to germinate. […] Disease incidence is evaluated 11 DAI.
# [6] = system: Rhizoctonia; experiment: In vitro fungal cell growth on media containing glyphosate; assay type: cell-based; details: crop of interest Wheat/potato
# [7] = Glyphosate residue analysis in RR corn (GA21); assay type: in vivo; details: 2 × 0.75 lb
# Text: as §1
# [8] = system: Pseudocercosporella; experiment: In vitro fungal cell growth on media containing glyphosate; assay type: cell-based; details: crop of interest Wheat
# [9] = target: corn EPSPS; experiment: Kinetic studies of EPSPS inhibition by glyphosate; assay type: biochemical; details: equivalent of 0.5 μM
# Text: Structural studies of EPSPS based on X-ray crystallography have identified key amino acids involved in catalysis.
# [10] = system: Gaeumannomyces; experiment: In vitro fungal cell growth on media containing glyphosate; assay type: cell-based; details: crop of interest Wheat
# [11] = target: corn EPSPS; details: read-out: Ki for glyphosate; cited from earlier work
# [12] = system: Puccinia spores; experiment: Translocation of glyphosate to shielded wheat leaf for leaf rust prevention; assay type: in vivo
# Text: In the data shown in FIG. 1, the top fully expanded wheat leaf was shielded from Roundup® spray (0-1×, 1× at 0.75 lb ae/a) followed by inoculation of wheat rust spores to the shielded leaf at 1 day after treatment (DAT).
# 14C-glyphosate is sprayed over-the-top to wheat plants using field application conditions and use rates. The top fully-expanded leaf (one leaf) is shielded from the spray (the untreated leaf).
# [13] = Glyphosate residue analysis in RR cotton; assay type: in vivo; details: 3 × 1.5 lb, OT/PD/PH, seed
# Text: as §1
# [14] = system: Phytophthora; experiment: In vitro fungal cell growth on media containing glyphosate; assay type: cell-based; details: crop of interest Potato/soy
# [15] = system: Puccinia; experiment: as above; assay type: cell-based; details: crop of interest Wheat
# [16] = Glyphosate residue analysis in RR sugarbeet; assay type: in vivo
# Text: as §1
# [17] = system: Septoria; experiment: In vitro fungal cell growth on media containing glyphosate; assay type: cell-based; details: crop of interest Wheat
# [18] = system: Pyricularia; assay type: cell-based; details: growth media, crop of interest Rice
# [19] = system: Fusarium; experiment: In vitro fungal cell growth on media containing glyphosate; assay type: cell-based; details: crop of interest Wheat/potato
# [20] = Glyphosate residue analysis in RR soybean; assay type: in vivo; details: 3 × 0.75 lb, V3/R1/PH
# Text: as §1
# [21] = system: Puccinia spores; experiment: Tissue glyphosate concentration and disease prevention in glyphosate tolerant wheat; assay type: in vivo
# Method: Four different regimens are employed. […] The inoculated plants are then incubated for 24 hours at 100% relative humidity for germination of the spores. […] Disease conditions are evaluated macroscopically for pustule development and lesion development.
# [22] = Glyphosate residue analysis in RR potato; assay type: in vivo; details: tubers
# Text: as §1
# [23] = system: Verticillium wilt (Verticillium dahliae); experiment: Verticillium wilt control in Roundup Ready cotton; assay type: in vivo; details: three genetic backgrounds, 22 ounces of WeatherMax Roundup at two and five true leaf stage, observed about three and four months after planting, versus adjacent untreated plot
# Text: The cotton seeds were planted and the emerged plants were sprayed with 22 ounces of WeatherMax Roundup® at the two and five true leaf stage. […] The treated plants continued to grow compared to the untreated plants that had shut down. […] Cotton plants suffering from other wilt diseases of cotton, especially Fusarium wilt disease, are expected to benefit from treatment with glyphosate.
# [24] = system: Botrytis; experiment: In vitro fungal cell growth on media containing glyphosate; assay type: cell-based; details: crop of interest Veg/strawberry
# [25] = Glyphosate residue analysis in RR wheat; assay type: in vivo
# Text: as §1
# [26] = system: Asian soybean rust; experiment: Field trial of glyphosate and Opera fungicide on Asian soybean rust; assay type: in vivo, Phakopsora pachyrhizi
# Method: A field study was conducted to further confirm the greenhouse study. The same cultivars were planted in three replicated plots and treatments as described in the greenhouse study. […] All treatments were effective in preventing disease on RR8045 cultivar.
# [27] = system: Common rust or Southern rust spores (Puccinia sorghi, Puccinia polysora); experiment: Field tests of glyphosate on rust diseases of Roundup Ready corn nk603; assay type: in vivo; details: 1 to 9 scale
# [28] = system: Asian soybean rust; experiment: Greenhouse study of glyphosate and Opera fungicide on Asian soybean rust; assay type: in vivo, Phakopsora pachyrhizi
# [29] = system: Asian soybean rust (Phakopsora pachyrhizi); experiment: Field observation of Asian soybean rust in glyphosate tolerant soybean; assay type: in vivo; details: Brazil
# Method: Asian soybean rust is an aggressive foliar disease of soybean that occurs where soybeans are grown in Asia, and more recently, in southern Africa, Paraguay, Argentina and Brazil. Phakopsora pachyrhizi, the fungus that causes Asian soybean rust, has been found in the continental United States. Glyphosate compositions are used to control, prevent or treat disease in glyphosate tolerant soybean plants (RR) under field conditions. A single application rate of Roundup® (1×=0.75 lbs ae/acre or 0.84 kg ae/ha) or multiple applications are applied times to a rust susceptible variety of soybean. The Roundup® treated plants are not treated with any fungicide and allowed to be naturally infected with Asian soybean rust. In addition, glyphosate-tolerant soybean plants can be grown in a greenhouse and manually infected with spores to induced disease infection.
# Rust development is delayed 7-10 days in RR soybean (sprayed at ˜V4 stage), as compared to conventional soy. Rust severity is less in RR soybean as compared to conventional soybean in early season observations.
compound,measurement,setting,value
"O=C(O)c1cc(Cl)nc(Cl)c1 [INA, 2,6-dichloro isonicotinic acid]",WCI3 gene induction (Northern blot),[1],induced
same,leaf rust infection / resistance,[2],did not confer leaf rust resistance
"O=C(O)CNCP(=O)(O)O [glyphosate, N-phosphonomethylglycine]",Gly (ppm),"[3]; 1.5 lb 5 lf, grain",0.05 ppm
same,Gly (ppm),"[3]; 1.5 lb 5 lf, straw",0.05 ppm
same,Gly (ppm),"[3]; 2 × 1.12 lb, 5 lf/pan ini, grain",3.00 ppm
same,Gly (ppm),"[3]; 2 × 1.12 lb, 5 lf/pan ini, straw",3.10 ppm
same,Gly (ppm),"[3]; 3 × 1.12 lb, 5 lf/pan ini/PH, grain",14.80 ppm
same,Gly (ppm),"[3]; 3 × 1.12 lb, 5 lf/pan ini/PH, straw",6.90 ppm
same,Gly (ppm),[4],0.02 ppm
same,development of pustules,"[5]; 1× glyphosate at 4DAI, lesions already present at treatment",no development of pustules
same,infection level,"[5]; wheat 3-leaf stage, 1× glyphosate after inoculation, untreated/surfactant between 10% and about 25%",either no infection or no progression to an existing infection
same,"In vitro EC90, ppm",[6],1000 ppm
same,Gly (ppm),"[7]; V4/V8, forage",0.73 ppm
same,Gly (ppm),"[7]; V4/V8, grain",0.07 ppm
same,Gly (ppm),"[7]; V4/V8, stover",1.30 ppm
same,"In vitro EC90, ppm",[8],<100 ppm
same,Ki expressed as glyphosate in plant tissues,[9],approximately 0.15 ppm
same,"In vitro EC90, ppm",[10],1000 ppm
same,Ki,[11],500 nM
same,tissue glyphosate at which complete disease prevention was attained,"[12]; shielded (untreated) wheat leaf, spray application of ½× of Roundup, inoculated 1DAT",1.3 ppm
same,disease incidence versus spray dose,"[12]; shielded wheat leaf, 11 days after inoculation, 0-1× spray",decrease in disease incidence with an increase in spray dose
same,Gly (ppm),[13],1.60 ppm
same,"In vitro EC90, ppm",[14],1000 ppm
same,"In vitro EC90, ppm",[15],5000 ppm
same,Gly (ppm),"[16]; 3 × 0.75, 2 lf/12 lf/12 lf + 30 d, beet",6.60 ppm
same,Gly (ppm),"[16]; 3 × 0.75, 2 lf/12 lf/12 lf + 30 d, tops",4.30 ppm
same,Gly (ppm),"[16]; 3 × 0.75 lb, 2 lf/6 lf/12 lf, beet",0.50 ppm
same,Gly (ppm),"[16]; 3 × 0.75 lb, 2 lf/6 lf/12 lf, tops",0.40 ppm
same,"In vitro EC90, ppm",[17],<100 ppm
same,"In vitro EC90, ppm",[18],5000 ppm
same,"In vitro EC90, ppm",[19],1000 ppm
same,Gly (ppm),[20]; forage,7.60 ppm
same,Gly (ppm),[20]; hay,1.30 ppm
same,Gly (ppm),[20]; seed,0.80 ppm
same,pustule development,"[21]; 12 days after inoculation, wheat treated with 1× spray, inoculated 1 day or 14 days after treatment, controls about 25% to about 30%",less than 1%
same,tissue concentration of glyphosate at which pustule development is prevented,[21]; glyphosate tolerant wheat leaf,about 10 ppm
same,Gly (ppm),"[22]; 2 × 1.5 lb, 2 lf/row closure",4.10 ppm
same,Gly (ppm),"[22]; 3 × 1.5 lb, 2 lf/row clo/PH",8.60 ppm
same,wilt symptoms,[23],reduced symptoms
same,"In vitro EC90, ppm",[24],<100 ppm
same,Gly (ppm),"[25]; 0.75 lb, 4 lf, forage",2.30 ppm
same,Gly (ppm),"[25]; 0.75 lb, 4 lf, grain",0.50 ppm
same,Gly (ppm),"[25]; 0.75 lb, 4 lf, hay",1.20 ppm
same,Gly (ppm),"[25]; 0.75 lb, 4 lf, straw",0.50 ppm
same,Gly (ppm),"[25]; 2 × 0.75 lb, 4 lf/Preboot, forage",2.60 ppm
same,Gly (ppm),"[25]; 2 × 0.75 lb, 4 lf/Preboot, grain",7.50 ppm
same,Gly (ppm),"[25]; 2 × 0.75 lb, 4 lf/Preboot, hay",13.00 ppm
same,Gly (ppm),"[25]; 2 × 0.75 lb, 4 lf/Preboot, straw",5.30 ppm
same,%_disease,"[26]; RR8000, glyp 1X",23.3%
same,%_disease,"[26]; RR8000, glyp 2X",10.0%
same,%_disease,"[26]; RR8045, glyp 1X",0.0%
same,%_disease,"[26]; RR8045, glyp 2X",1.7%
same,average disease rating,"[27]; hybrid corn, treatment #1 (pre-inoculation), 2× rate (1.5 lb./A), 1=resistant, 9=susceptible, control 4.1",3.6
same,disease rating,"[27]; hybrid corn, treatment #1 (pre-inoculation), 3× rate (2.25 lb./A), control 4.1",3.0
same,disease rating,"[27]; hybrid corn, treatment #2 (14 days post inoculation), control 4.1",4.1
same,disease rating,"[27]; hybrid corn, treatment #3 (28 days post inoculation), control 4.1",3.9
same,disease rating,"[27]; inbred corn, post inoculation treatments, second value",4.9
same,disease rating,"[27]; inbred corn, post inoculation treatments",4.4
same,average disease rating,"[27]; inbred corn, treatment #1 (pre-inoculation), 2× rate, controls 5.0 and 4.9",4.0
same,average disease rating,"[27]; inbred corn, treatment #1 (pre-inoculation), 3× rate, controls 5.0 and 4.9",3.2
same,percent disease of Asian soybean rust,"[28]; RR8000, Trt 2 glyp 1X every two weeks from V3, 14 d-1 spray",23.3%
same,percent disease of Asian soybean rust,"[28]; RR8000, Trt 2 glyp 1X every two weeks from V3, 28 d-2 sprays",41.7%
same,percent disease of Asian soybean rust,"[28]; RR8000, Trt 2 glyp 1X every two weeks from V3, 42 d-3 sprays",48.3%
same,percent disease of Asian soybean rust,"[28]; RR8000, Trt 2 glyp 1X every two weeks from V3, 56 d-4 sprays",88.3%
same,percent disease of Asian soybean rust,"[28]; RR8000, Trt 3 glyp 2X every two weeks from V3, 14 d-1 spray",10.0%
same,percent disease of Asian soybean rust,"[28]; RR8000, Trt 3 glyp 2X every two weeks from V3, 28 d-2 sprays",10.0%
same,percent disease of Asian soybean rust,"[28]; RR8000, Trt 3 glyp 2X every two weeks from V3, 42 d-3 sprays",10.0%
same,percent disease of Asian soybean rust,"[28]; RR8000, Trt 3 glyp 2X every two weeks from V3, 56 d-4 sprays",30.0%
same,percent disease of Asian soybean rust,"[28]; RR8045, Trt 2 glyp 1X every two weeks from V3, 14 d-1 spray",50.0%
same,percent disease of Asian soybean rust,"[28]; RR8045, Trt 2 glyp 1X every two weeks from V3, 28 d-2 sprays",56.7%
same,percent disease of Asian soybean rust,"[28]; RR8045, Trt 2 glyp 1X every two weeks from V3, 42 d-3 sprays",71.7%
same,percent disease of Asian soybean rust,"[28]; RR8045, Trt 2 glyp 1X every two weeks from V3, 56 d-4 sprays",86.7%
same,percent disease of Asian soybean rust,"[28]; RR8045, Trt 3 glyp 2X every two weeks from V3, 14 d-1 spray",3.3%
same,percent disease of Asian soybean rust,"[28]; RR8045, Trt 3 glyp 2X every two weeks from V3, 28 d-2 sprays",10.0%
same,percent disease of Asian soybean rust,"[28]; RR8045, Trt 3 glyp 2X every two weeks from V3, 42 d-3 sprays",13.3%
same,percent disease of Asian soybean rust,"[28]; RR8045, Trt 3 glyp 2X every two weeks from V3, 56 d-4 sprays",73.3%
same,rust severity,"[29]; RR soybean compared to conventional soybean, early season observations",less
same,delay of rust development,"[29]; RR soybean sprayed at ~V4 stage, compared to conventional soy",7 to 10 days
